Laboratory results taken from patent publication US20100197643A1, “PHYTOCHEMICAL-RICH OILS AND METHODS RELATED THERETO” (priority 2007, published 2010).

How the values were obtained:
Caco-2 cell monolayers = test: Transepithelial transport model, apical to basolateral; format: in vitro ADME; settings: 2 hours, 37° C., not affected by initial polyphenolic concentration
[1] = Phenolic storage stability of açai oil, 10 weeks at 20, 30, 40° C.; format: physicochemical; settings: for change in concentration after storage: 10 weeks at 20 or 30 ° C.
caspase-3 = test: Caspase-3 activation in HL-60 cells; format: cell-based, human; settings: optimal time (2, 3, 4 hours tested), highest concentration

COc1cc(C(=O)O)cc(OC)c1O [syringic acid]
transport efficiency (percentage of initial apical concentration detected on basolateral side) (Caco-2 cell monolayers; from açai pulp extracts): approximately 0.6% | change in concentration after storage [1]: no significant changes

COc1cc(C(=O)O)ccc1O [vanillic acid]
change in concentration after storage [1]: no significant changes

O=C(O)c1ccc(O)cc1 [p-hydroxybenzoic acid]
transport efficiency (percentage of initial apical concentration detected on basolateral side) (Caco-2 cell monolayers; from açai pulp extracts): approximately 2.0% | change in concentration after storage [1]: no significant changes

Oc1cc(O)c2c(c1)O[C@H](c1ccc(O)c(O)c1)[C@@H](O)C2 [(+)-catechin]
transport efficiency (percentage of initial apical concentration detected on basolateral side) (Caco-2 cell monolayers; from açai oil extracts): approximately 0.1% | change in concentration after storage [1]: no significant changes

O=C(O)c1ccc(O)c(O)c1 [protocatechuic acid, 3,4-dihydroxybenzoic acid]
change in concentration after storage [1]: no significant changes

COc1cc(/C=C/C(=O)O)ccc1O [ferulic acid]
transport efficiency (percentage of initial apical concentration detected on basolateral side) (Caco-2 cell monolayers; from açai oil extracts): approximately 0.1% | decrease in concentration after storage ([1]; 10 weeks at 20° C.): 9.3% | decrease in concentration after storage ([1]; 10 weeks at 30° C.): 20.3% | decrease / change in concentration after storage ([1]; 10 weeks at 40° C.): 33.1%

CC[C@@]1(O)C(=O)OCc2c1cc1n(c2=O)Cc2cc3ccccc3nc2-1 [camptotechin]
caspase-3 activation (maximal) (caspase-3): 7 fold

O=c1c(O)c(-c2ccc(O)c(O)c2)oc2cc(O)cc(O)c12 [Quercetin, quercetin]
caspase-3 activation (maximal) (caspase-3): double
